Data taken from US10471043B2, “Compounds and methods of treating bacterial infections” (ULTUPHARMA AB, priority 2015, dated 2019).
Values after ≈ are worked out from the molar mass of the structure shown. Like-named read-outs stand apart in the source and are kept apart here.

Experiments:
[1] = tested on: Staphylococcus aureus strain LMG15975; assay: MIC by broth micro-dilution, AM3/PBS 1:1; format: cell-based
Method: (§1) At first (Table 1), MIC is determined by broth micro-dilution method. The test medium is Antibiotic Medium 3 (AM3; Difco Ltd) mixed with Phosphate Buffered Saline (PBS) in proportions 1:1. Selected MIC values are verified using cation-adjusted Mueller Hinton Broth (MHB; BD). Cell concentration of tested pathogen is adjusted to between 3 and 5×10^5 cells per ml. To verify cell concentration of tested pathogen, viable cell counts are performed directly after each MIC-test by dilution method with PBS as a dilution solvent. Cells are counted on the agar plates with 50% strength Vegetable Peptone Broth (50% VPB; Oxoid Ltd) after 16 to 20 h of incubation at 37° C.
(§2) Cells of pathogen suspended in test medium are distributed to the wells and the plates are incubated for 16 to 20 h at 37° C. Negative controls are wells with the test medium only and positive controls are wells with the pathogen in test medium. The MIC is defined as the lowest concentration of each compound with no visible growth of pathogen.
Example compounds of formula I were examined for antibacterial activity against the Gram-positive bacterium Staphylococcus aureus strain LMG15975 using the above described method (Table 1).

A. baumannii = assay: MIC by broth micro-dilution; format: cell-based; conditions: Acinetobacter baumannii, A. baumannii (G−), Table 2; read-out: MIC (μg/ml) A. baumannii
Method: as §1, §2

Bacillus cereus = assay: MIC by broth micro-dilution; format: cell-based; conditions: Table 4, read-out: MIC (μg/ml) B. cereus
Method: as §1, §2

M. frederiksbergense = assay: MIC by broth micro-dilution; format: cell-based; conditions: Table 4; read-out: MIC (μg/ml) M. frederiksbergense
Method: as §1, §2

Mycobacterium smegmatis = assay: MIC by broth micro-dilution; format: cell-based; conditions: Mycolicibacterium smegmatis; Table 4; read-out: MIC (μg/ml) M. smegmatis
Method: as §1, §2

[2] = tested on: mupirocin-resistant strains of Staphylococcus aureus; assay: MIC against mupirocin-resistant strains; format: cell-based
Method: as §1, §2

[3] = Cytotoxicity assay, WST-8; conditions: human, HepG2 cells, CC50 (μg/mL)
in vitro = conditions: human, CC50 (μg/mL)
S. aureus = assay: Antimicrobial Susceptibility Test by Broth Microdilution, M07-A9 CLSI; format: cell-based; conditions: Staphylococcus aureus
S. epidermidis [4] = assay: as above; format: cell-based; conditions: Staphylococcus epidermidis
E. faecium = assay: as above; format: cell-based; conditions: Enterococcus faecium; E. faecium 7, Vancomycin-resistant, Table 5; read-out: MIC
E. faecalis = assay: as above; format: cell-based; conditions: Enterococcus faecalis
Serratia marescens = assay: MIC panel of Gram-negative bacteria (Table 7); format: cell-based; conditions: EN0454 Serratia marescens G− PKL 3692
Micrococcus luteus = assay: MIC panel of Gram-negative bacteria (Table 7); format: cell-based; conditions: EN0455 Micrococcus luteus G+ PKL 3693
Proteus mirabilis = assay: MIC panel of Gram-negative bacteria (Table 7); format: cell-based
E. coli = assay: MIC panel of Gram-negative bacteria (Table 7); format: cell-based; conditions: Escherichia coli
P. aeruginosa = assay: MIC panel of Gram-negative bacteria (Table 7); format: cell-based; conditions: Pseudomonas aeruginosa
Enterobacter aerogenes = assay: MIC panel of Gram-negative bacteria (Table 7); format: cell-based; conditions: Klebsiella aerogenes; EN0461 Enterobacter aerogenes G− PKL 3706
S. epidermidis [5] = assay: MIC panel of Gram-negative bacteria (Table 7); format: cell-based; conditions: Staphylococcus epidermidis; EN0456 S. epidermidis G+ PKL 3694
Citrobacter sp. = assay: MIC panel of Gram-negative bacteria (Table 7); format: cell-based; conditions: EN0465 Citrobacter sp. G− PKL 3710
S. typhimurium = assay: MIC panel of Gram-negative bacteria (Table 7); format: cell-based; conditions: Salmonella enterica; EN0466 S. typhimurium G− TH6509
A. Pittii/nosocomialis = assay: MIC panel of Gram-negative bacteria (Table 7); format: cell-based; conditions: Acinetobacter pittii; EN0180 A. Pittii/nosocomialis G−
K. oxytoca = assay: MIC panel of Gram-negative bacteria (Table 7); format: cell-based; conditions: Klebsiella oxytoca; EN0392 K. oxytoca G−
K. pneumoniae = assay: MIC panel of Gram-negative bacteria (Table 7); format: cell-based; conditions: Klebsiella pneumoniae
A. baumanii = assay: MIC panel of Gram-negative bacteria (Table 7); format: cell-based
[6] = Kong et al 2005; cited from earlier work
Dutch Elm disease fungus = conditions: Ayer & Villar 1985; cited from earlier work
Pyricularia oryziae = conditions: Miyakado et al 1982; cited from earlier work
[7] = LMG15975, S. aureus LMG15975, Table 1, read-out: MIC
[8] = LMG15975, S. aureus LMG15975, Table 1, read-out: MIC (μg/ml)
[9] = LMG15975, Table 4, read-out: MIC (μg/ml) S. aureus
[10] = S. aureus V55, mupirocin-resistant
[11] = S. aureus V86, mupirocin-resistant

In the case of `CCCCCCCCCC1CC(O)=C(C(=O)CCCC)C(=O)O1` (centres unmarked) [Ex. 8, 4-hydroxy-6-nonyl-3-pentanoyl-5,6-dihydro-2H-pyran-2-one], the MIC ([1]; LMG15975, S. aureus (G+), Table 2, read-out: MIC (μg/ml) S. aureus) is reported as < 0.6 µg/mL, the MIC [1, 7] is reported as ≤ 1.9 µM and the MIC [1, 8] is reported as ≤ 0.6 µg/mL. The MIC [1, 9] was ≤ 0.6 µg/mL, the MIC (A. baumannii) was 8 to 16 µg/mL (≈ 24.7 to 49.3 µM) and the MIC (Bacillus cereus) was ≤ 1 µg/mL. The MIC (M. frederiksbergense) was ≤ 4 µg/mL, the MIC (Mycobacterium smegmatis) was ≤ 4 µg/mL and the “MIC” value [2, 10] was ≤0.1 µg/mL. The “MIC” value [2, 11] was ≤0.1 µg/mL, the MIC ([2]; Staphylococcus aureus, S. aureus V321, mupirocin-resistant, read-out: MIC) was ≤ 0.1 µg/mL and the CC50 at 48 h ([3]; HepG2, 48 hours, Table 1) was 36 µM.
In the case of `CCCCCCCCCCC1CC(O)=C(C(=O)CC)C(=O)O1` (centres unmarked) [Ex. 10, 6-decyl-4-hydroxy-3-propionyl-5,6-dihydro-2H-pyran-2-one], the MIC [1, 7] is reported as 1.3 to 2.6 µM, the MIC [1, 8] is reported as 0.4 to 0.8 µg/mL and the MIC (Bacillus cereus) is reported as ≤ 1 µg/mL. The MIC (M. frederiksbergense) was ≤ 0.5 µg/mL and the CC50 at 48 h (in vitro) was 60 µM.
In the case of `CCCCCCCCCC1CC(O)=C(C(=O)CC2CCCCC2)C(=O)O1` (centres unmarked) [Ex. 14, 3-(2-cyclohexylacetyl)-4-hydroxy-6-nonyl-5,6-dihydro-2H-pyran-2-one], the MIC ([1]; LMG15975, S. aureus LMG 15975 (SLU), Methicillin-resistant, Table 5, read-out: MIC (μg/mL)) is reported as 0.25 µg/mL, the MIC [1, 7] is reported as ≤ 0.3 µM and the MIC [1, 8] is reported as 0.25 µg/mL. For the same compound, the MIC [1, 9] was ≤ 0.1 µg/mL, the MIC (Bacillus cereus) was ≤ 1 µg/mL and the “MIC” value [2, 10] was ≤0.1 µg/mL. For the same compound, the “MIC” value [2, 11] was ≤0.1 µg/mL, the “MIC” value ([2]; S. aureus V321, mupirocin-resistant) was ≤0.1 µg/mL and the MIC ([2]; Staphylococcus aureus, S. aureus V308, mupirocin-resistant, read-out: MIC) was ≤ 0.1 µg/mL. It also gave an MIC (S. aureus; ATCC29213, S. aureus ATCC29213, QC strain, Table 5) of 2 µg/mL (≈ 5.49 µM), an MIC (S. aureus; S. aureus 7280, Methicillin-resistant) of 2 µg/mL (≈ 5.49 µM) and an MIC (S. aureus; S. aureus MO17, Methicillin-sensitive, Table 5) of 1 µg/mL (≈ 2.74 µM). The MIC (S. aureus; S. aureus PICI, Methicillin-resistant, Table 5) was 1 µg/mL (≈ 2.74 µM), the MIC (S. epidermidis [4]; S. epidermis RO7, Methicillin-sensitive, Table 5) was 0.5 µg/mL (≈ 1.37 µM) and the MIC (S. epidermidis [4]; S. epidermis Staph 1, Methicillin-resistant) was 0.5 µg/mL (≈ 1.37 µM). For the same compound, the MIC (S. epidermidis [4]; S. epidermis TA12, Methicillin-resistant, Table 5) was 0.5 µg/mL (≈ 1.37 µM), the MIC (E. faecium) was 1 µg/mL (≈ 2.74 µM) and the MIC (E. faecalis; E. faecalis 14, Vancomycin-resistant) was 1 µg/mL (≈ 2.74 µM). For the same compound, the MIC (E. faecalis; E. faecalis 24, Vancomycin-sensitive, Table 5) was 1 µg/mL (≈ 2.74 µM), the MIC (Serratia marescens) was > 64 µg/mL and the MIC (Micrococcus luteus) was 0.5 µg/mL (≈ 1.37 µM). For the same compound, the MIC (Proteus mirabilis; EN0445 P. mirabilis ST19 G−) was >64 µg/mL, the MIC (Proteus mirabilis; EN0457 Proteus mirabilis G− PKL 3695, read-out: MIC) was > 64 µg/mL and the MIC (E. coli; EN001 E. coli WT, ENABLE Primary MIC panel) was > 64 µg/mL. The MIC (E. coli; EN002 E. coli DtolC, ENABLE Primary MIC panel) was > 64 µg/mL, the MIC (E. coli; EN003 E. coli D22 (lps mut), ENABLE Primary MIC panel) was > 64 µg/mL and the MIC (E. coli; EN0012 E. coli, ENABLE L2C MIC panel) was > 64 µg/mL. For the same compound, the MIC (E. coli; EN0013 E. coli Del-tolC, ENABLE L2C MIC panel) was 16 µg/mL (≈ 43.9 µM), the MIC (E. coli; EN0458 E. coli B G− PKL 3698) was > 64 µg/mL and the MIC (P. aeruginosa; EN004 P. aeruginosa WT, ENABLE Primary MIC panel) was > 64 µg/mL. For the same compound, the MIC (P. aeruginosa; EN005 P. aeruginosa Efflux mut, ENABLE Primary MIC panel) was > 64 µg/mL, the MIC (P. aeruginosa; EN0014 P. aeruginosa, ENABLE L2C MIC panel) was > 64 µg/mL and the MIC (P. aeruginosa; EN0015 P. aeruginosa Efflux mut, ENABLE L2C MIC panel) was > 64 µg/mL. The MIC (P. aeruginosa; EN0422 P. aeruginosa G−) was > 64 µg/mL, the MIC (P. aeruginosa; EN0459 P. aeruginosa G− PKL 3699) was > 64 µg/mL and the MIC (P. aeruginosa; EN0460 P. aeruginosa G− PKL 3704) was > 64 µg/mL. For the same compound, the MIC (Enterobacter aerogenes) was > 64 µg/mL, the MIC (S. epidermidis [5]) was 1 µg/mL (≈ 2.74 µM) and the MIC (Citrobacter sp.) was > 64 µg/mL. The MIC (S. typhimurium) was > 64 µg/mL, the MIC (A. Pittii/nosocomialis) was > 64 µg/mL and the MIC (K. oxytoca) was > 64 µg/mL. The MIC (K. pneumoniae; EN006 K. pneumoniae WT, ENABLE Primary MIC panel) was > 64 µg/mL, the MIC (K. pneumoniae; EN0010 K. pneumoniae, ENABLE L2C MIC panel (isogenic efflux pairs)) was > 64 µg/mL and the MIC (K. pneumoniae; EN0011 K. pneumoniae Efflux mut, ENABLE L2C MIC panel) was > 64 µg/mL. For the same compound, the MIC (A. baumanii; Acinetobacter baumannii, EN007 A. baumanii WT, ENABLE Primary MIC panel, read-out: MIC) was > 64 µg/mL, the MIC (A. baumanii; EN0016 A. baumanii, ENABLE L2C MIC panel) was >64 µg/mL and the MIC (A. baumanii; EN0017 A. baumanii Efflux mut, ENABLE L2C MIC panel) was >64 µg/mL. It also gave a CC50 at 48 h ([3]; HepG2, 48 hours, Table 1) of 14 µM and a CC50 at 48 h ([3]; HepG2, Table 5) of 14 µM.
In the case of `CCCCCCc1c(O)cc(CCCCC)oc1=O` [pseudopyronine A], the antibacterial activities [6] is given as “moderate to poor”.
For `CCCCCCCc1cc(O)c(CCCCCC)c(=O)o1` [pseudopyronine B], the antibacterial activities [6] is listed as “moderate to poor”.
In the case of lachnellulic acid, the “activity against the Dutch Elm disease fungus” value (Dutch Elm disease fungus) is given as “active”.
In the case of podoblastin A, the “activity against the fungus Pyricularia oryziae” value (Pyricularia oryziae) is given as “active”.
